Columns and labels:
[1] = tested on: human lung adenocarcinoma cells (Calu-3); assay: Microarray analysis of apoptosis-regulating genes in Calu-3 cells; format: cell-based; set-up: key: ‘+’ and ‘−’ indicates genes over- and under-expressed, respectively; ‘+’ and ‘−’ indicates genes over- and under-expressed, respectively
Method: Cell culture. Human bronchial epithelial adenocarcinoma cell line (Calu-3) was obtained from ATCC (Manassas, Va., USA) and cultured in 50 cm^2 plastic culture flasks in modified eagle's medium (MEM) supplemented with 10% fetal bovine serum, glutamine (4 mM; Sigma-Aldrich, Canada) and penicillin (100 U mL-1)-streptomycin (100 μg mL-1) solution (Sigma-Aldrich, Canada). Cells were cultured at an initial density of 10^6 cells/mL, and fresh media was added on day 3. Cells were grown in an incubator at 37° C., 5% CO2, and 100% humidity.
Chemical treatments. Calu-3 cells were treated with different concentrations (0-100 μM) of cyclolinopeptide A (“CLA”), cyclolinopeptide C (“CLC”) or cyclolinopeptide E (“CLE”). Camptothecin (Sigma-Aldrich, Canada; 4 μM) and dimethylsulfoxide (DMSO) were used as positive and negative controls, respectively. Camptothecin is useful as a positive control in studies testing the effect of certain compounds on apoptosis in cancer cell lines. Camptothecin is a cytotoxic quinoline alkaloid that inhibits the DNA enzyme topoisomerase I (topo I) and has shown remarkable anti-cancer activity. Two analogs of camptothecin have been approved and are used in cancer chemotherapy.
Current microarray design platforms facilitate the design of gene expression arrays for analysis of a compound of interest and its impact on a large number of known genes. Cyclolinopeptide A, cyclolinopeptide C and cyclolinopeptide E were therefore used in microarray analysis to determine their effect on under- and over-expression of genes involved in the regulation of apoptosis in human lung adenocarcinoma cells (Table 2).

[2] = tested on: heat shock gene HSP70A; assay: Expression of heat shock gene HSP70A in nematode cultures exposed to cyclolinopeptide-A; format: in vivo, Caenorhabditis elegans; conditions: two hours exposure, C. elegans
Excerpt: FIG. 17 is a chart showing the effects of cyclolinopeptide A on the expression of the HSP70A gene in Caenorhabditis elegans. Bars on the columns represent standard deviations. Letters above the bars designate significant differences determined by data analysis using one-way analysis of variance with pair-wise multiple comparisons were done by the Tukey test; and
The following example relates to the use of selected purified individual cyclolinopeptides recovered and processed as disclosed herein for modulating the expression of stress genes. Nematode cultures (Caenorhabditus elegans) were exposed for two hours to one of DMSO (negative control), 0.1 μM cyclolinopeptide-A, 1.0 μM cyclolinopeptide-A, 10.0 μM cyclolinopeptide-A, and 100.0 μM cyclolinopeptide-A, and then cultured to assess the effects of cyclolinopeptide-A on the expression of the heat shock gene HSP70A by C. elegans. The control treatment was unamended culture medium.

Substance	BAK gene up- or down-regulated [1]	BCL-2 gene up- or down-regulated [1]	CDEB gene up- or down-regulated [1]	FASLG gene up- or down-regulated [1]	Fas gene up- or down-regulated [1]	TNF gene up- or down-regulated [1]	TP53BP2 gene up- or down-regulated [1]	TP53 gene up- or down-regulated [1]	increase in the production of the Hsp70A protein ([2]; 0.1 μM in culture media) [%]	increase in the production of this heat shock protein (Hsp70A) ([2]; 1.0 μM in culture media) [fold]	increase in the production of the Hsp70A protein ([2]; 10.0 μM in culture media) [%]	CASP10 gene up- or down-regulated [1]	CIDEA gene up- or down-regulated [1]	HRK gene up- or down-regulated [1]
cyclolinopeptide A [CLP-A]	+	+	+	+	+	+	+	+	30	3.5	30			
cyclolinopeptide C [CLP-C]		−	+		+	+	+	+				+	+	+
cyclolinopeptide E [CLP-E]		−	+		+	+	+						+	+
